Type in all cases: in vivo
Holding throughout (conditions): 125 g/h, evaluated after 13 days

In test [1] the test system is Abutilon theophrasti (ABUTH). As to the kind of experiment: Pre-emergence glasshouse herbicide test. In outline: (§1)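 Scores are percentage plant damage 13 days after treatment, binned 5=80-100%, 4=60-79%, 3=40-59%, 2=20-39%, 1=0-19%. Compounds were sprayed at 125 g/h unless otherwise indicated, either one day after sowing or on 8-day-old plants, under 24/16 °C, 14 h light and 65% humidity.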

Test [2] has as its system Amaranthus retoflexus (AMARE). Briefly: Pre-emergence glasshouse herbicide test. In outline:
as §1

In test [3] the test system is Echinochloa crus-galli (ECHCG). Briefly: Pre-emergence glasshouse herbicide test. In short, it runs like this: as §1
Test [4] relates to Ipomoea hederacea (IPOHE). Briefly: Pre-emergence glasshouse herbicide test. In outline:
as §1

Test [5] has as its system Setaria faberi (SETFA). As to the kind of experiment: Pre-emergence glasshouse herbicide test. In outline:
as §1

The test system of test [6] is Abutilon theophrasti (ABUTH). Briefly: Post-emergence glasshouse herbicide test. In outline: as §1
Test [7] has as its system Amaranthus retoflexus (AMARE). Briefly: Post-emergence glasshouse herbicide test. In short, it runs like this:
as §1

The subject of test [8] is Echinochloa crus-galli (ECHCG). Briefly: Post-emergence glasshouse herbicide test. In short, it runs like this:
as §1

The test system of test [9] is Ipomoea hederacea (IPOHE). As to the kind of experiment: Post-emergence glasshouse herbicide test. In short, it runs like this:
as §1

In test [10] the test system is Setaria faberi (SETFA). Briefly: Post-emergence glasshouse herbicide test. In short, it runs like this:
as §1

For the molecule `CCS(=O)(=O)c1c(OCC(F)(F)F)ccc(C(=O)Nc2nnnn2C)c1C` [Compound 1.040], the “percentage damage caused to the plant, ABUTH” value in test [1] and in test [6] was 5 (5=80-100%) each time. Moreover, the “percentage damage caused to the plant, AMARE” value in [2] and in [7] was 5 (5=80-100%) each time. In addition, the “percentage damage caused to the plant, ECHCG” value in [3] and in test [8] was 5 (5=80-100%) throughout. The “percentage damage caused to the plant, IPOHE” value in test [4] and in [9] was 5 (5=80-100%) each time. Further, the “percentage damage caused to the plant, SETFA” value in test [5] and in test [10] was 5 (5=80-100%) each time.
As for `CCSc1c(OC(F)F)ccc(C(=O)Nc2nnc(C)o2)c1Cl` [Compound 2.012], the entries for the “percentage damage caused to the plant, ABUTH” value in [1] and in test [6] were 4 (4=60-79%) and 5 (5=80-100%), respectively. The “percentage damage caused to the plant, AMARE” value in test [2] and in test [7] was 5 (5=80-100%) each time. For the same molecule, the “percentage damage caused to the plant, ECHCG” value in test [3] and in test [8] was 5 (5=80-100%) throughout. Further, the “percentage damage caused to the plant, IPOHE” value in test [4] is 3 (3=40-59%); in test [9], 4 (4=60-79%). Moreover, the “percentage damage caused to the plant, SETFA” value in [5] and in [10] was 5 (5=80-100%) each time.
Turning to `CCS(=O)(=O)c1c(CC(F)(F)F)ccc(C(=O)Nc2nnnn2C)c1C` [Compound 1.024], the “percentage damage caused to the plant, ABUTH” value in [1] and in test [6] was 5 (5=80-100%) in each case. Besides, the “percentage damage caused to the plant, AMARE” value in test [2] and in [7] was 5 (5=80-100%) each time. The “percentage damage caused to the plant, ECHCG” value in test [3] and in test [8] was 5 (5=80-100%) each time. Further, the “percentage damage caused to the plant, IPOHE” value in test [4] and in [9] was 5 (5=80-100%) throughout. Further, the “percentage damage caused to the plant, SETFA” value in [5] and in test [10] was 5 (5=80-100%) throughout.
On to `CCn1nnnc1NC(=O)c1ccc(OC(F)(F)F)c(S(=O)(=O)CC)c1C` [Compound 1.046], for which the “percentage damage caused to the plant, ABUTH” value in test [1] and in test [6] was 5 (5=80-100%) each time. Besides, the “percentage damage caused to the plant, AMARE” value in [2] and in test [7] was 5 (5=80-100%) each time. Moreover, the “percentage damage caused to the plant, ECHCG” value in test [3] and in test [8] was 5 (5=80-100%) each time. The “percentage damage caused to the plant, IPOHE” value in test [4] and in [9] was 5 (5=80-100%) throughout. The “percentage damage caused to the plant, SETFA” value in test [5] and in test [10] was 5 (5=80-100%) in each case.
On to `CCS(=O)(=O)c1c(OC(F)F)ccc(C(=O)Nc2nnc(C)o2)c1C` [Compound 2.014], for which the “percentage damage caused to the plant, ABUTH” value in test [1] and in [6] was 5 (5=80-100%) each time. Moreover, the “percentage damage caused to the plant, AMARE” value in [2] and in [7] was 5 (5=80-100%) throughout. Further, the “percentage damage caused to the plant, ECHCG” value in [3] and in test [8] was 5 (5=80-100%) in each case. Besides, the “percentage damage caused to the plant, IPOHE” value in test [4] is given as 5 (5=80-100%); in test [9], 4 (4=60-79%). Besides, the “percentage damage caused to the plant, SETFA” value in [5] and in test [10] was 5 (5=80-100%) throughout.
Regarding `CCSc1c(OC(F)(F)F)ccc(C(=O)Nc2nnnn2C)c1C` [Compound 1.030], the “percentage damage caused to the plant, ABUTH” value in test [1] and in [6] was 5 (5=80-100%) throughout. For the same molecule, the “percentage damage caused to the plant, AMARE” value in test [2] and in test [7] was 5 (5=80-100%) throughout. The “percentage damage caused to the plant, ECHCG” value in test [3] and in [8] was 5 (5=80-100%) each time. The “percentage damage caused to the plant, IPOHE” value in test [4] is on record as 3 (3=40-59%); in test [9], 5 (5=80-100%). Besides, the “percentage damage caused to the plant, SETFA” value in test [5] and in test [10] was 5 (5=80-100%) throughout.
In the case of `CCSc1c(OCC(F)(F)F)ccc(C(=O)Nc2nnnn2C)c1C` [Compound 1.038], the “percentage damage caused to the plant, ABUTH” value in test [1] was 4 (4=60-79%); in test [6], 5 (5=80-100%). In addition, the “percentage damage caused to the plant, AMARE” value in test [2] and in test [7] was 5 (5=80-100%) each time. Further, the “percentage damage caused to the plant, ECHCG” value is recorded as 2 (2=20-39%) in test [3] and 5 (5=80-100%) in test [8]. Moreover, the “percentage damage caused to the plant, IPOHE” value in test [4] is on record as 2 (2=20-39%); in [9], 4 (4=60-79%). The figures for the “percentage damage caused to the plant, SETFA” value in [5] and in [10] were 2 (2=20-39%) and 5 (5=80-100%), respectively.
In the case of `CCCS(=O)(=O)c1c(OC(F)F)ccc(C(=O)Nc2nnnn2CC)c1Cl` [Compound 1.051], the “percentage damage caused to the plant, ABUTH” value in test [1] and in [6] was 5 (5=80-100%) throughout. Also, the “percentage damage caused to the plant, AMARE” value in [2] and in test [7] was 5 (5=80-100%) throughout. Further, the “percentage damage caused to the plant, ECHCG” value in test [3] and in [8] was 5 (5=80-100%) in each case. Besides, the “percentage damage caused to the plant, IPOHE” value in [4] and in test [9] was 4 (4=60-79%) in each case. For the same molecule, the “percentage damage caused to the plant, SETFA” value in test [5] and in test [10] was 5 (5=80-100%) throughout.
Consider `CCn1nnnc1NC(=O)c1ccc(OCC(F)(F)F)c(S(=O)(=O)CC)c1C` [Compound 1.063], for which the “percentage damage caused to the plant, ABUTH” value in [1] and in test [6] was 5 (5=80-100%) in each case. Also, the “percentage damage caused to the plant, AMARE” value in [2] and in test [7] was 5 (5=80-100%) in each case. Also, the “percentage damage caused to the plant, ECHCG” value in test [3] and in [8] was 5 (5=80-100%) in each case. Further, the figures for the “percentage damage caused to the plant, IPOHE” value in [4] and in [9] were 4 (4=60-79%) and 3 (3=40-59%), respectively. The “percentage damage caused to the plant, SETFA” value in test [5] and in [10] was 5 (5=80-100%) in each case.
For `CCS(=O)(=O)c1c(OC(F)F)ccc(C(=O)Nc2nnnn2C)c1C` [Compound 1.031], the “percentage damage caused to the plant, ABUTH” value in test [1] and in [6] was 5 (5=80-100%) throughout. In addition, the “percentage damage caused to the plant, AMARE” value in test [2] and in test [7] was 5 (5=80-100%) each time. In addition, the “percentage damage caused to the plant, ECHCG” value in test [3] and in test [8] was 5 (5=80-100%) throughout. The “percentage damage caused to the plant, IPOHE” value in [4] and in test [9] was 5 (5=80-100%) each time. Further, the “percentage damage caused to the plant, SETFA” value in test [5] and in [10] was 5 (5=80-100%) in each case.
Regarding `Cn1nnnc1NC(=O)c1ccc(OCC(F)F)c([S+](C)[O-])c1Cl` (stereo not drawn) [Compound 1.034], the “percentage damage caused to the plant, ABUTH” value in test [1] is 3 (3=40-59%); in [6], 4 (4=60-79%). The “percentage damage caused to the plant, AMARE” value in test [2] and in test [7] was 4 (4=60-79%) each time. Also, the “percentage damage caused to the plant, ECHCG” value in test [3] is reported as 4 (4=60-79%); in [8], 5 (5=80-100%). In addition, the “percentage damage caused to the plant, IPOHE” value in [4] is on record as 2 (2=20-39%); in test [9] it was 3 (3=40-59%). For the same molecule, the “percentage damage caused to the plant, SETFA” value in [5] and in test [10] was 4 (4=60-79%) each time.
Consider `CCS(=O)(=O)c1c(OC(F)(F)F)ccc(C(=O)Nc2nnc(C)o2)c1C` [Compound 2.011], for which the “percentage damage caused to the plant, ABUTH” value in test [1] and in test [6] was 5 (5=80-100%) each time. Besides, the “percentage damage caused to the plant, AMARE” value in [2] and in test [7] was 5 (5=80-100%) each time. Besides, the “percentage damage caused to the plant, ECHCG” value in test [3] and in test [8] was 5 (5=80-100%) each time. Moreover, the “percentage damage caused to the plant, IPOHE” value in test [4] is on record as 5 (5=80-100%); in test [9], 4 (4=60-79%). The “percentage damage caused to the plant, SETFA” value in [5] and in test [10] was 5 (5=80-100%) throughout.

These data come from patent publication US20220402882A1, “HERBICIDAL COMPOUNDS” (SYNGENTA CROP PROTECTION AG, priority 2019, published 2022).
